Source: patent US7794934B2, “Predicting negative symptom change during drug treatment” (Centre for Addiction and Mental Health, priority 2006, dated 2010)
Where two headings read alike, the source gives them in different places.

Assays:
NMDA receptors = conditions: Wang and Liang 1998; cited from earlier work
[1] = tested on: PCP-induced social withdrawal; conditions: rats (Corbett et al. 1995); cited from earlier work
[2] = tested on: neurotoxicity induced by NMDA receptor antagonists; conditions: Farber 1993, 1996; Olney 1994; cited from earlier work
NMDA receptor = conditions: at therapeutic levels (Lidsky et al. 1993); cited from earlier work
[3] = tested on: NMDA-receptor-mediated neurotransmission; conditions: Arvanov et al. 1997; cited from earlier work
[4] = target: glycine binding site associated with the NMDAR complex (Homo sapiens, UniProt Q05586); conditions: cited from earlier work
schizophrenic subjects = test: Negative symptom improvement (SADSneg subscale) over six months of clozapine treatment, by GRIN2B T5988C genotype; format: in vivo, human; conditions: after six months of clozapine treatment, baseline as covariate
Description: Our sample consisted of 90 schizophrenic subjects treated with clozapine. The majority of the patients were Caucasian. The second most represented ethnicity was African American. The ratio of males to females was approximately 2.5:1. The overall response to clozapine treatment over six months was assessed using the Brief Psychiatric Rating Scale (BPRS) and the Schedule for Affective Disorders and Schizophrenia (SADS). The sample is composed of a group of patients from the Cleveland area (obtained from Dr. H. Y Meltzer, Case Western Reserve University), as part of a multisite coordinated clinical trial of clozapine response. Data on the specific assessment of negative symptom improvement in response to clozapine treatment were collected over a six month period (baseline minus 6 month score). Negative symptom improvement over a period of six months was assessed using the Brief Psychiatric Rating Scale subscale for negative symptoms (BPRSneg), and the Schedule for Affective Disorders and Schizophrenia subscale for negative symptoms (SADSneg).
Analysis of Covariance (ANCOVA) was performed in order to test the effect of genotype on negative symptom improvement as measured by the SADSneg subscale. The baseline score for the SADSneg, assessed before the clozapine treatment was started, was used as a covariate, in part to control for regression to the mean effects.

[5] = tested on: patients with schizophrenia; conditions: cited from earlier work
[6] = added to conventional antipsychotics

## COc1cccc([C@H](O)C2CCN(CCc3ccc(F)cc3)CC2)c1OC [M100907]
NMDA receptors
  prevention of PCP-induced blockade of NMDA receptors: prevented

## Cc1nc2n(c(=O)c1CCN1CCC(c3noc4cc(F)ccc34)CC1)CCCC2 [risperidone]
[1]
  reversal of PCP-induced social withdrawal: not

## CSc1ccc2c(c1)N(CCC1CCCCN1C)c1ccccc1S2 (stereo not shown) [thioridazine]
[2]
  prevention of neurotoxicity induced by NMDA receptor antagonists: intermediate effectiveness

## O=C(CCCN1CCC(O)(c2ccc(Cl)cc2)CC1)c1ccc(F)cc1 [haloperidol]
[1]
  reversal of PCP-induced social withdrawal: not
[2]
  prevention of neurotoxicity induced by NMDA receptor antagonists: intermediate effectiveness
NMDA receptor
  displacement of the ligand [3H]MK801 from the NMDA receptor: not
[3]
  enhancement of NMDA-receptor-mediated neurotransmission: not
[4]; Lidsky et al. 1997
  mode of action at the glycine binding site associated with the NMDAR complex: partial agonist
[4]; in the absence of glycine (Lidsky et al. 1997)
  effect on NMDA receptor activity: augmented

## CN1CCN(C2=Nc3cc(Cl)ccc3Nc3ccccc32)CC1 [clozapine]
Schizophrenic subjects; GRIN2B 5988 C C genotype
  SADSneg mean (mean converted change score, baseline minus 6 month score): 1.3
Schizophrenic subjects; GRIN2B 5988 C T genotype
  SADSneg mean (mean converted change score, baseline minus 6 month score): 1.26
Schizophrenic subjects; GRIN2B 5988 T T genotype
  SADSneg mean (mean converted change score, baseline minus 6 month score): 1.87

## CN1CCN(C2=Nc3cc(F)ccc3Cc3ccccc32)CC1 [fluperlapine]
[2]
  prevention of neurotoxicity induced by NMDA receptor antagonists: strongly prevented

## N[C@@H]1CONC1=O [D-cycloserine]
[5]; added to clozapine
  effect on negative symptoms: worsening of negative symptoms
[5]; [6]
  effect on negative symptoms: significantly improved
  performance on a cognitive battery: did not improve
